Measurements taken from US9999616B2 (ZENITH EPIGENETICS LTD., priority 2013, dated 2018).

Legend:
hIL-6 mRNA = assay: Inhibition of hIL-6 mRNA transcription in LPS-stimulated U937 macrophages; type: cell-based, Human; conditions: Homo sapiens, U-937, PMA-differentiated U937 cells, 1 h pretreatment, LPS 3 h, read-out: IL-6 activity
Procedure, shortened: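 PMA-differentiated U937 macrophages (60 ng/mL PMA, 3 days) pretreated 1 h with compound in 0.1% DMSO, then stimulated with 1 ug/mL E. coli LPS for 3 h at 37° C. IL-6 mRNA quantified by one-step TaqMan qRT-PCR, normalized to cyclophilin; fold expression relative to control, triplicate wells.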

[1] = system: c-myc in Human AML MV4-11 cells; assay: Inhibition of cMYC expression (mRNA, real-time PCR) in MV4-11 cells; type: cell-based; conditions: 3 h treatment, cMYC mRNA by real-time PCR
Procedure, shortened: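 MV4-11 cells in IMDM with 10% FBS were treated with increasing compound concentrations (DMSO 0.1%) for 3 h at 37 °C, in triplicate. Isolated mRNA was quantified by one-step TaqMan RT-qPCR, cMYC Ct normalized to cyclophilin, and fold expression given relative to DMSO control.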

[2] = molecular target: Brd4 bromodomain 1 (BRD4(1)) (Homo sapiens, UniProt O60885); assay: Inhibition of tetra-acetylated histone H4 binding to Brd4 bromodomain 1, measured by FRET (HTRF); parameters: made in house; host or cells: E. coli BL21(DE3); conditions: 2 h at room temperature
Procedure, shortened: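 Inhibition was read as a drop in 665 nm relative to 620 nm HTRF signal after 2 h at room temperature, with IC50 from dose-response curves in duplicate wells. Reactions held 200 nM E. coli-expressed His-tagged bromodomain and 25-50 nM biotinylated tetra-acetylated histone H4 peptide. Buffer was 30 mM HEPES pH 7.4 with KF, CHAPS, BSA and 0.2% DMSO.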

Human AML MV-4-11 cells = assay: Inhibition of cell proliferation in MV4-11 cells (CellTiter Aqueous One); type: cell-based; conditions: for IC50: MV4-11, 72 h
Procedure, shortened: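 MV4-11 cells, 5×10^4 per well in IMDM with 10% FBS, were exposed to increasing compound concentrations or 0.1% DMSO for 72 h at 37 °C in triplicate. Viability was read by MTS (CellTiter Aqueous One) absorbance at 490 nm after 3-4 h. IC50 was derived from background-corrected signal relative to DMSO.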

Row | Compound | IC50 (hIL-6 mRNA) | IC50 [1] | IC50 [2] | IC50 (Human AML MV-4-11 cells) | Cell Proliferation activity (Human AML MV-4-11 cells; 72 h)
1 | Cc1nc2c(N3CCC3=O)cc(-c3c(C)noc3C)cc2[nH]1 [Example Compound 147, 1-(6-(3,5-dimethyl-isoxazol-4-yl)-2-methyl-1H-benzo[d]imidazol-4-yl)azetidin-2-one] | 300 to 3000 nM | 300 to 3000 nM | 300 to 3000 nM | – | Not active
2 | Cc1nc2c(Oc3ccccc3)cc(-c3c(C)noc3C)cc2[nH]1 [Example Compound 148, 3,5-dimethyl-4-(2-methyl-4-phenoxy-1H-benzo[d]imidazol-6-yl)isoxazole] | ≤ 300 nM | ≤ 300 nM | ≤ 300 nM | 300 to 3000 nM | –
3 | Cc1noc(C)c1-c1cc(-c2c(C)noc2C)c2nc(NCCO)[nH]c2c1 [Example Compound 150, 2-((4,6-bis(3,5-dimethyl-isoxazol-4-yl)-1H-benzo[d]imidazol-2-yl)amino) ethanol] | 300 to 3000 nM | 300 to 3000 nM | ≤ 300 nM | 300 to 3000 nM | –
4 | Cc1noc(C)c1-c1cc(N(CCc2ccccc2)CCc2ccccc2)c2nc[nH]c2c1 [Example Compound 151, 6-(3,5-dimethyl-isoxazol-4-yl)-N,N-diphenethyl-1H-benzo[d] imidazol-4-amine] | 300 to 3000 nM | 300 to 3000 nM | 300 to 3000 nM | 300 to 3000 nM | –
5 | Cc1nc2c(-c3ccc4nncn4c3)cc(-c3c(C)noc3C)cc2[nH]1 [Example Compound 156, 4-(4-([1,2,4]triazolo [4,3-a]pyridin-6-yl)-2-methyl-1H-benzo[d]imidazol-6-yl)-3,5-dimethyl isoxazole] | 3000 to 30000 nM | 300 to 3000 nM | ≤ 300 nM | 3000 to 30000 nM | –
6 | Cc1nc2c(CCc3ccccc3)cc(-c3c(C)noc3C)cc2[nH]1 [Example Compound 161, 3,5-dimethyl-4-(2-methyl-4-phenethyl-1H-benzo[d]imidazol-6-yl)isoxazole] | 300 to 3000 nM | 300 to 3000 nM | ≤ 300 nM | 3000 to 30000 nM | –
7 | Cc1nc2c(-c3cnc4ccccc4c3)cc(-c3c(C)noc3C)cc2[nH]1 [Example Compound 163, 3,5-dimethyl-4-(2-methyl-4-(quinolin-3-yl)-1H-benzo[d]imidazol-6-yl)isoxazole] | 300 to 3000 nM | 300 to 3000 nM | ≤ 300 nM | 300 to 3000 nM | –
8 | Cc1nc2c(-c3cscc3C)cc(-c3c(C)noc3C)cc2[nH]1 [Example Compound 166, 3,5-dimethyl-4-(2-methyl-4-(4-methyl-thiophen-3-yl)-1H-benzo[d]imidazol-6-yl)isoxazole] | 300 to 3000 nM | 300 to 3000 nM | ≤ 300 nM | 300 to 3000 nM | –
9 | Cc1nc2c(-c3c(C)cnn3C)cc(-c3c(C)noc3C)cc2[nH]1 [Example Compound 169, 4-(4-(1,4-dimethyl-1H-pyrazol-5-yl)-2-methyl-1H-benzo[d]imidazol-6-yl)-3,5-dimethyl isoxazole] | 300 to 3000 nM | 300 to 3000 nM | ≤ 300 nM | 300 to 3000 nM | –
10 | Cc1nc2c(Oc3cc(C#N)ccc3C)cc(-c3c(C)noc3C)cc2[nH]1 [Example Compound 172, 3-((6-(3,5-dimethyl-isoxazol-4-yl)-2-methyl-1H-benzo[d]imidazol-4-yl)oxy)-4-methyl benzonitrile] | 300 to 3000 nM | 300 to 3000 nM | ≤ 300 nM | 300 to 3000 nM | –
11 | Cc1nc2c(N3CCOCC3)cc(-c3c(C)noc3C)cc2[nH]1 [Example Compound 173, 4-(6-(3,5-dimethyl-isoxazol-4-yl)-2-methyl-1H-benzo[d]imidazol-4-yl) morpholine] | 300 to 3000 nM | 300 to 3000 nM | ≤ 300 nM | 300 to 3000 nM | –
12 | Cc1nc2c(N3CCOCC3C)cc(-c3c(C)noc3C)cc2[nH]1 (stereo not shown) [Example Compound 177, 4-(6-(3,5-dimethyl-isoxazol-4-yl)-2-methyl-1H-benzo[d]imidazol-4-yl)-3-methyl morpholine] | 300 to 3000 nM | ≤ 300 nM | ≤ 300 nM | 300 to 3000 nM | –
13 | Cc1n[nH]c(C)c1-c1cc(-c2c(C)noc2C)cc2[nH]nc(C)c12 [Example Compound 180, 4-(4-(3,5-dimethyl-1H-pyrazol-4-yl)-3-methyl-1H-indazol-6-yl)-3,5-dimethylisoxazole] | ≤ 300 nM | ≤ 300 nM | ≤ 300 nM | ≤ 300 nM | –
14 | Cc1ccncc1-c1cc(-c2c(C)noc2C)cc2[nH]c(NC3CCOCC3)nc12 [Example Compound 201, 6-(3,5-dimethyl-isoxazol-4-yl)-4-(4-methyl-pyridin-3-yl)-N-(tetra hydro-2H-pyran-4-yl)-1H-benzo[d] imidazol-2-amine] | ≤ 300 nM | ≤ 300 nM | ≤ 300 nM | ≤ 300 nM | –

Now from value to compound, other results behind:

Row | IC50 (hIL-6 mRNA) | IC50 [1] | IC50 [2] | IC50 (Human AML MV-4-11 cells) | Compound | Cell Proliferation activity (Human AML MV-4-11 cells; 72 h)
15 | 300 to 3000 nM | 300 to 3000 nM | 300 to 3000 nM | ≤ 300 nM | Cc1nc2c(-c3cc4ccccc4s3)cc(-c3c(C)noc3C)cc2[nH]1 [Example Compound 145, 4-(4-(benzo[b]thiophen-2-yl)-2-methyl-1H-benzo[d]imidazol-6-yl)-3,5-dimethyl isoxazole] | –
16 | ≤ 300 nM | 300 to 3000 nM | ≤ 300 nM | 300 to 3000 nM | COc1cccc(-c2cc(-c3c(C)noc3C)cc3[nH]c(C)nc23)c1F [Example Compound 152, 4-(4-(2-fluoro-3-methoxy-phenyl)-2-methyl-1H-benzo[d]imidazol-6-yl)-3,5-dimethyl isoxazole] | –
17 | 300 to 3000 nM | 300 to 3000 nM | ≤ 300 nM | 300 to 3000 nM | Cc1nc2c(-c3ccc4nccnc4c3)cc(-c3c(C)noc3C)cc2[nH]1 [Example Compound 153, 3,5-dimethyl-4-(2-methyl-4-(quinoxalin-6-yl)-1H-benzo[d]imidazol-6-yl)isoxazole] | –
18 | 300 to 3000 nM | 300 to 3000 nM | ≤ 300 nM | 300 to 3000 nM | Cc1nc2c(Oc3cccnc3C)cc(-c3c(C)noc3C)cc2[nH]1 [Example Compound 155, 3,5-dimethyl-4-(2-methyl-4-((2-methylpyridin-3-yl)oxy)-1H-benzo[d]imidazol-6-yl)isoxazole] | –
19 | 300 to 3000 nM | 300 to 3000 nM | ≤ 300 nM | 300 to 3000 nM | Cc1nc2c(-c3cc(C(F)(F)F)ccc3F)cc(-c3c(C)noc3C)cc2[nH]1 [Example Compound 157, 4-(4-(2-fluoro-5-(trifluoro-methyl)phenyl)-2-methyl-1H-benzo[d]imidazol-6-yl)-3,5-dimethyl isoxazole] | –
20 | 300 to 3000 nM | 300 to 3000 nM | 300 to 3000 nM | 300 to 3000 nM | Cc1nc2c(-c3cc(C(F)(F)F)ccc3Cl)cc(-c3c(C)noc3C)cc2[nH]1 [Example Compound 162, 4-(4-(2-chloro-5-(trifluoro-methyl)phenyl)-2-methyl-1H-benzo[d]imidazol-6-yl)-3,5-dimethyl isoxazole] | –
21 | 300 to 3000 nM | 300 to 3000 nM | ≤ 300 nM | 300 to 3000 nM | Cc1nc2c(-c3sc(C)nc3C)cc(-c3c(C)noc3C)cc2[nH]1 [Example Compound 170, 4-(4-(2,4-dimethyl-thiazol-5-yl)-2-methyl-1H-benzo[d]imidazol-6-yl)-3,5-dimethyl isoxazole] | –
22 | 300 to 3000 nM | 300 to 3000 nM | ≤ 300 nM | 300 to 3000 nM | COc1ccncc1Oc1cc(-c2c(C)noc2C)cc2[nH]c(C)nc12 [Example Compound 171, 4-(4-((4-methoxy-pyridin-3-yl)oxy)-2-methyl-1H-benzo[d]imidazol-6-yl)-3,5-dimethyl isoxazole] | –
23 | 300 to 3000 nM | 300 to 3000 nM | ≤ 300 nM | 300 to 3000 nM | Cc1nc2c(Oc3cc(C(N)=O)ccc3C)cc(-c3c(C)noc3C)cc2[nH]1 [Example Compound 174, 3-((6-(3,5-dimethylisoxazol-4-yl)-2-methyl-1H-benzo[d]imidazol-4-yl)oxy)-4-methylbenzamide] | –
24 | ≤ 300 nM | ≤ 300 nM | ≤ 300 nM | 300 to 3000 nM | Cc1noc(C)c1-c1cc(-c2c(C)nn(C)c2C)c2c(c1)ncn2C [Example Compound 182, 3,5-dimethyl-4-(1-methyl-7-(1,3,5-trimethyl-1H-pyrazol-4-yl)-1H-benzo[d]imidazol-5-yl)isoxazole] | –
25 | ≤ 300 nM | ≤ 300 nM | ≤ 300 nM | 300 to 3000 nM | Cc1noc(C)c1-c1cc(-c2cccc(C#N)c2C)c2nc(N3CCOCC3)[nH]c2c1 [Example Compound 203, 3-(6-(3,5-dimethyl-isoxazol-4-yl)-2-morpholino-1H-benzo[d]imidazol-4-yl)-2-methyl benzonitrile] | –
